# Measurements as given in patent US20250082654A1, “AZD3355 (LESOGABERAN) FOR TREATMENT AND PREVENTION OF NONALCOHOLIC STEATOHEPATITIS (NASH), LIVER FIBROSIS, AND OTHER LIVER CONDITIONS” (Icahn School of Medicine at Mount Sinai, priority 2018, published 2025).
# Key:
# NASH model mice = assay: NASH mouse model, histopathological scoring of liver sections; assay type: in vivo; settings: 30 mg/kg daily; for Hepatocyte ballooning ± SE: score 0-2; for Portal inflammation ± SE / Lobular Inflammation ± SE / Steatosis ± SE: score 0-3; for Fibrosis Stage ± SE: score 0-4; for NAFLD activity score (NAS) ± SE: score 0-8
# Description: Four separate groups of mice were given either 0.5% methylcellulose (as Vehicle) or AZD3355 at 10 mg/kg (low dose) body weight of mice or 30 mg/kg (high dose) body weight of mice by twice daily (BID (5 days/week)) and OCA at 30 mg/kg body weight of mice by daily (QD (5 days/week)) through oral route for up to next 12 weeks (week 13 to week 24). Them last group of mice were not given any drug or vehicle treatment, as No Tx—24 weeks and maintained in parallel with treatment/vehicle groups. Usually all doses were given at early morning and the second daily dose of AZD3355 at evening (10 hours of intervals). All animals were closely monitored the health conditions and behavior.
# A piece of tissue from large liver lobe was fixed in 10% Formalin Buffered (Astral Diagnostics Incorporated NJ) embedded in paraffin and microtome sectioning were performed. Slides containing tissue sections were baked at 60° C. for 1 hour and re-hydrated through xylene followed by graded ethanol (100%, 95%, 85% and 70%) into distilled water and processed in either Picrosirius red/Fast green or hematoxylin and eosin staining.
# A total of 2 sections/animal were stained with H&E staining performed by standard protocol.
# Steatosis, hepatocyte ballooning, lobular inflammation, portal inflammation and fibrosis of picroserious red/fast green and H&E stained liver section were scored according to the NASH Clinical Research Network (NASH CRN) scoring system in a blinded fashion by an expert hepato-pathologist in Icahn School of Medicine at Mount Sinai. NAFLD activity score (NAS) was calculated according to Brunt criteria and range from 0-8. NAS was calculated by the sum of scores of steatosis (0-3), hepatocyte ballooning (0-2) and lobular inflammation (0-3). NAS score of >5.0 strongly correlated with “definite-NASH” whereas <3 correlated with “not-NASH”. Fibrosis (0-4) or portal inflammation (0-3) scores were assessed separately and not included in NAS.
# LX-2 cells [1] = assay: Fibrogenic gene expression by RT-qPCR; assay type: cell-based, human; settings: 48 and 72 hours
# Description: The following fibrogenic gene expressions were quantified by RT-qPCR: • 1. Collagen1α1 (Col1α1); • 2. Alpha Smooth Muscle Actin (αSMA); • 3. Beta PDGF receptor (β-PDGFR); • 4. Transforming growth factor-β receptor1 (TGFβ-R1); • 5. Tissue inhibitor of metalloproteinase—1 (TIMP1); • 6. Tissue inhibitor of metalloproteinase—2 (TIMP2); and • 7. Matrix Metalloproteinase 2 (MMP2).
# The kinase inhibitor sorafenib (7.5 μM concentration) was used as positive control and run in parallel. 150,000 LX-2 cells or 200,000 phHSCs per well were plated on 6-well plate dish. Cells were starved overnight in DMEM supplemented with 0.1% BSA (without antibiotic). Cells were then incubated with either AZD3355 or sorafenib at the indicated concentration and duration. Cells were harvested and total RNA was extracted using RNeasy Mini Kit (Qiagen, CA). 0.5 μg of total RNA was used for reverse transcription with ‘RNA to cDNA EcoDry Premix (Double Primed) Kit’ (Clontech, CA). Expression of fibrogenic genes were measured by qPCR using custom designed primers (Sigma-Aldrich, MO) and iQ SYBR Green Supermix (Bio-Rad, CA) on a LightCycler 480 II (Roche Diagnostics Corporation, IN) instrument. Glyceraldehyde-3-phosphate dehydrogenase (GAPDH), […] (RPII), α-tubulin and β-actin genes were tested to determine the best fit for housekeeping gene of the study. […]
# LX-2 cells [2] = assay: Fibrogenic protein expression by western blot and densitometry from cell lysate; assay type: cell-based, human; settings: LX2 cells, 48 or 72 hours, 30 nM or 100 nM AZD3355 or sorafenib
# Description: (§1) Western blot and RT-qPCR experiments were run in parallel. 150,000 LX-2 cells or 200,000 phHSCs per well were plated on a 6-well plate dish. Cells were starved overnight in DMEM supplemented with 0.1% BSA (without antibiotic). Cells were then incubated with either AZD3355 or sorafenib at the indicated concentration and duration. Cells were harvested and lysed using RIPA buffer (50 mM Tris-HC1 pH8.0, 150 mM NaCl, 1% IGEPAL, 0.5% sodium deoxycholate and 0.1% SDS) along with Pierce Protease Inhibitor Mini Tablets, EDTA-Free (ThermoScientific, IL). Total protein was measured by Bradford colorimetric assay using Protein Assay Dye Reagent Concentrate (Bio-Rad, CA). […] After hybridized with HRP conjugated secondary antibody (either Goat anti-rabbit HRP (Jackson ImmunoResearch Laboratories, PA) or anti-mouse IgG-HRP (Cell Signaling Technology, MA) the membrane was treated with Immobilon Western Chemiluminescent HRP substrate (Millipore, MA) and the signals were captured with Amersham Imager 6000 (GE Healthcare, PA). 210 kD of Col1α1, 72 kD of MMP2 and 42 kD of α-SMA bands were recognized by respective antibody. 37 kD band of GAPDH was probed as loading control. For densitometric measurement of the protein bands, images were exported and analyzed using ImageJ 1.50 f software and bands were normalized to the loading control, GAPDH.
# phHSCs = assay: as above; assay type: cell-based, human; settings: 48 or 72 hours
# Description: as §1
# human liver slices = assay: Liver slice assay, histopathology and H&E staining; assay type: cell-based; settings: 24 hours
# Description: Ten human liver pieces were collected from the Mount Sinai biorepository. The samples were prepared by coring the liver with 8 mm cylindrical coring tools. The liver cores were kept in ice cold WE medium, with GlutaMAX supplemental. A liver core was then mounted on a specimen plate with cyanoacrylate adhesive. Liver slices (approximately 200 μm in thickness) were placed in ice cold Krebs-Henesleit buffer in the presence of carbogen gas. There was then a 1 hour pre-incubation in WE GlutaMAX media with gentamicin in 95% O2 and 5% CO2 at 37° C. in a humidified rocker chamber to restore ATP levels.
# The liver slices were then cultured in WE GlutaMAX media with gentamicin in 95% O2 and 5% CO2 at 37° C. in a humidified rocker chamber with slow 70 rpm rocking in the presence of AZD3355 in the amounts of 250 nM, 500 nM, 1000 nM, or 2000 nM, or sorafenib at 1000 nM., or control vehicle (saline water).
# After 24 hours, the tissue slices were harvested for either RNA isolation and quantitative PCR for measurements of Col1α1, TNFα, and IL-6 expression, or for histopathology and hematoxylin and eosin (H&E) staining as described in Example 3.
# [3] = test system: carbon tetrachloride-induced liver injury; settings: in vivo; cited from earlier work
smiles,measurement,setting,value
"CC[C@H]1[C@@H](O)[C@@H]2[C@H](CC[C@]3(C)[C@@H]([C@H](C)CCC(=O)O)CC[C@@H]23)[C@@]2(C)CC[C@@H](O)C[C@@H]12 [OCA, Obeticholic acid, reference compound]",Hepatocyte ballooning ± SE,"NASH model mice; ♀ Mice, vehicle 1.2 ± 0.1",1.1 ± 0.2
same,Portal inflammation ± SE,"NASH model mice; ♀ Mice, vehicle 1.6 ± 0.1",1.0 ± 0.2
same,Lobular Inflammation ± SE,"NASH model mice; ♀ Mice, vehicle 2.3 ± 0.1",1.6 ± 0.1
same,Steatosis ± SE,"NASH model mice; ♀ Mice, vehicle 2.5 ± 0.1",2.0 ± 0.2
same,Fibrosis Stage ± SE,"NASH model mice; ♀ Mice, vehicle 3.0 ± 0.1",2.2 ± 0.1
same,NAFLD activity score (NAS) ± SE,"NASH model mice; ♀ Mice, vehicle 6.1 ± 0.4",4.7 ± 0.6
same,Steatohepatitis Grade ± SE,"NASH model mice; ♀ Mice, vehicle 1.8 ± 0.2",1.4 ± 0.3
same,Hepatocyte ballooning ± SE,"NASH model mice; ♂ Mice, vehicle 1.7 ± 0.1",1.0 ± 0.2
same,Portal inflammation ± SE,"NASH model mice; ♂ Mice, vehicle 2.0 ± 0.1",1.3 ± 0.2
same,Steatosis ± SE,"NASH model mice; ♂ Mice, vehicle 2.7 ± 0.1",2.0 ± 0.2
same,Lobular Inflammation ± SE,"NASH model mice; ♂ Mice, vehicle 2.8 ± 0.1",1.9 ± 0.2
same,Fibrosis Stage ± SE,"NASH model mice; ♂ Mice, vehicle 3.3 ± 0.1",2.9 ± 0.1
same,NAFLD activity score (NAS) ± SE,"NASH model mice; ♂ Mice, vehicle 7.2 ± 0.3",5.0 ± 0.6
same,Steatohepatitis Grade ± SE,"NASH model mice; ♂ Mice, vehicle 2.6 ± 0.2",1.5 ± 0.3
"CNC(=O)c1cc(Oc2ccc(NC(=O)Nc3ccc(Cl)c(C(F)(F)F)c3)cc2)ccn1 [Sorafenib, sorafenib]","gene expression of pro-fibrogenic genes Col1α1, αSMA, βPDGF-R, TGFβ-R1, TIMP1, TIMP2, MMP2",LX-2 cells [1],downregulated
same,protein expression of Col1α1 (western blot),LX-2 cells [2],no change
same,protein expression of Col1α1 (western blot),phHSCs,no change
same,liver cells viability (H&E),human liver slices,did not change
NCC(CC(=O)O)c1ccc(Cl)cc1 (stereo not shown) [baclofen],liver injury due to carbon tetrachloride,[3],attenuates injury
